The target of test [1] is recombinant human FGFR3 (amino acids R397-T806) (Homo sapiens (Human), UniProt P22607). The test is described as follows: FGFR3 enzyme activity assay (LanthaScreen TR-FRET). It is filed as biochemical. The settings on record: 25 μM ATP, 10 min incubation at 22° C., average of multiple determinations if made, read-out: FGFR3 Enz FRET IC50. How it is done: FGFR3 kinase activity was measured by the Invitrogen LanthaScreen™ Assay technology which directly measures the amount of substrate phosphorylation by TR-FRET using a fluorescently-labeled peptide and Europium-labeled antibody. Briefly, […] N-terminal GST-HIS6 fusion protein with a 3C cleavage site recombinant human FGFR3 (amino acids R397-T806) (ProQinase Cat. No. 1068-0000-1) was incubated with 100 nM Alexa Fluor® 647-Poly-GT Peptide Substrate (Life Technologies Cat. No. PV5836) and 25 μM ATP along with test compound in a buffer consisting of 250 mM HEPES, 25 mM MgCl2, 0.05% TritonX-100, pH 7.5, and 2% DMSO. […] After a 10 minute incubation at 22° C., an equal volume of 2 nM LanthaScreen® Eu-PY20 Antibody (Life Technologies Cat. No. PV5691) and 10 mM EDTA were added to quench the kinase reaction and start the detection reaction. After an additional 60 minute incubation at 22° C., the reaction was measured using a PerkinElmer EnVision multimode plate reader via TR-FRET dual wavelength detection, and the percent of control (POC) calculated using a ratiometric emission factor. 100 POC was determined using no test compounds and 0 POC was determined using no enzyme. The POC values were fit to a 4-parameter logistic curve as a function of the concentration of the compound, and the IC50 value is the point where the curve crosses 50 POC.
recombinant human FGFR3 (amino acids R397-T806), sequence (P22607 397-806): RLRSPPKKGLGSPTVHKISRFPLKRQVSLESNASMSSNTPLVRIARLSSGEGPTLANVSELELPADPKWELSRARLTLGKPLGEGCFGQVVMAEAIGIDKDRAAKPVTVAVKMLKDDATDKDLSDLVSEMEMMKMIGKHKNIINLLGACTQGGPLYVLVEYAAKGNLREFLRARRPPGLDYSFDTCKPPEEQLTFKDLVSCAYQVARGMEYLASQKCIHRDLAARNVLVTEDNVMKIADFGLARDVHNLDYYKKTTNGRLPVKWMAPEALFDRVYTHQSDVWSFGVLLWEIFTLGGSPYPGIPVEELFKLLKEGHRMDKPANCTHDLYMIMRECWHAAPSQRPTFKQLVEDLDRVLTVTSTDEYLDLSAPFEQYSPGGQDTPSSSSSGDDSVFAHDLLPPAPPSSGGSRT

In test [2] the target is recombinant human FGFR2 cytoplasmic domain (amino acids 403-822) (Homo sapiens (Human), UniProt P21802). Put plainly: FGFR2 enzyme activity assay (LanthaScreen TR-FRET). It is filed as biochemical. The settings on record: 15 μM ATP, 20 min incubation at 22° C., average of multiple determinations if made, read-out: FGFR2 Enz FRET IC50. The method, then: FGFR2 kinase activity was measured by the Invitrogen LanthaScreen™ Assay technology which directly measures the amount of substrate phosphorylation by TR-FRET using a fluorescently-labeled peptide and Europium-labeled antibody. Briefly, […] His-tagged recombinant human FGFR2 cytoplasmic domain (amino acids 403-822) (Life Technologies Cat. No. PR5332A) was incubated with 100 nM Alexa Fluor® 647-Poly-GT Peptide Substrate (Life Technologies Cat. No. PV5836) and 15 μM ATP along with test compound in a buffer consisting of 250 mM HEPES, 25 mM MgCl2, 0.05% TritonX-100, pH 7.5, and 2% DMSO. […] After a 20 minute incubation at 22° C., an equal volume of 2 nM LanthaScreen® Eu-PY20 Antibody (Life Technologies Cat. No. PV5691) and 10 mM EDTA were added to quench the kinase reaction and start the detection reaction. After an additional 60 minute incubation at 22° C., the reaction was measured using a PerkinElmer EnVision multimode plate reader via TR-FRET dual wavelength detection, and the percent of control (POC) calculated using a ratiometric emission factor. 100 POC was determined using no test compounds and 0 POC was determined using no enzyme. The POC values were fit to a 4-parameter logistic curve as a function of the concentration of the compound, and the IC50 value is the point where the curve crosses 50 POC.
recombinant human FGFR2 cytoplasmic domain (amino acids 403-822), sequence (P21802 402-821): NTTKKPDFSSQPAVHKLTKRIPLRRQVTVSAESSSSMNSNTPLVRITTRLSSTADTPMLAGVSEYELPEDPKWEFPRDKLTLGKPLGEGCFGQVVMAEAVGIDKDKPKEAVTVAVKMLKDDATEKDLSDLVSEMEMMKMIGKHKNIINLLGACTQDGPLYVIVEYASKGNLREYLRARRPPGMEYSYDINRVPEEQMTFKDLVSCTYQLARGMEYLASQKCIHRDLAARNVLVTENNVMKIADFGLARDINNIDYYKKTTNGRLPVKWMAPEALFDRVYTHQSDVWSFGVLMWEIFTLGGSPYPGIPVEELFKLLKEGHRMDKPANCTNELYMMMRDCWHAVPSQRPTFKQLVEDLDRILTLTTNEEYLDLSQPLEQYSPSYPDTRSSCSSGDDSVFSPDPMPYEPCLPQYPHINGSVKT

Test [3] concerns the target recombinant human FGFR1 catalytic domain (amino acids 308-731) (Homo sapiens (Human), UniProt P11362). Put plainly: FGFR1 enzyme activity assay (LanthaScreen TR-FRET). It counts as biochemical. The settings on record: 20 min incubation at 22° C., average of multiple determinations if made, read-out: FGFR1 Enz FRET IC50. How it is done:
FGFR1 kinase activity was measured by the Invitrogen LanthaScreen™ Assay technology which directly measures the amount of substrate phosphorylation by Time-resolved fluorescence energy transfer (TR-FRET) using a fluorescently-labeled peptide and Europium-labeled antibody. Briefly, […] His-tagged recombinant human FGFR1 catalytic domain (amino acids 308-731) (Life Technologies Cat. No. PR4660A) was incubated with 100 nM Alexa Fluor® 647-Poly-GT Peptide Substrate (Life Technologies Cat. No. PV5836) and […] ATP along with test compound in a buffer consisting of 250 mM HEPES, 25 mM MgCl2, 0.05% TritonX-100, pH 7.5, and 2% DMSO. […] After a 20 minutes incubation at 22° C., an equal volume of 2 nM LanthaScreen® Eu-PY20 Antibody (Life Technologies Cat. No. PV5691) and 10 mM EDTA was added to quench the kinase reaction and start the detection reaction. After an additional 60 minute incubation at 22° C., the reaction was measured using a PerkinElmer EnVision multimode plate reader via TR-FRET dual wavelength detection, and the percent of control (POC) calculated using a ratiometric emission factor. 100 POC was determined using no test compounds and 0 POC was determined using no enzyme. The POC values were fit to a 4-parameter logistic curve as a function of the concentration of the compound, and the IC50 value is the point where the curve crosses 50 POC.

Test [4] concerns the target FGFR3 (SEQ ID NO: 5, amino acids 449-759) (Homo sapiens (Human), UniProt P22607). Put plainly: LC/MS FGFR3 kobs assay (covalent protein modification). It counts as binding. The settings on record: 500 nM FGFR3, 3 μM compound. The method, then:
The LC/MS FGFR1 and FGFR3 kobs assays were conducted as follows. […] At each time point, the reaction was quenched with 20 μL of 0.4% formic acid. The extent of protein modification by each compound was determined by LC/MS on an Agilent Technologies 6520 Q-TOF LC/MS. Protein signals were then automatically deconvoluted using Agilent Masshunter software. Deconvoluted mass signals were exported to Tibco Spotfire data analysis program for further processing and normalization.
Data analysis included five steps. First, the signals for the “DMSO Controls” were analyzed to determine the percent of signal associated with unmodified FGFR1 or FGFR3 at each time point. Next, the percent of the signal associated with the covalent modification was determined. Third, the average nonmodified “DMSO Control” signal was used to normalize the modified protein signals at each time point. The percent of unmodified protein was fit to an exponential decay model where A0 is the Percent Unmodified at the start of the reaction, and kobs is the observed rate constant over the time period.
Table EC contains kobs values for compounds tested in these assays, presented as the average of multiple determinations if multiple determinations were made. ND=not determined.

The target in test [5] is dephosphorylated FGFR1 (SEQ ID NO: 1, amino acids 458 to 765) (Homo sapiens (Human), UniProt P11362). The test is described as follows: FGFR enzyme binding assay (HTRF tracer displacement), FGFR1. The settings on record: 5 nM dephosphorylated FGFR1, average of multiple determinations if made. The method, then:
(§1) The potency of compounds inhibiting human isoforms of FGFR kinase was determined using Life Technologies' Homogeneous Time Resolved Fluorescence (HTRF)-based binding assay technology. […] After a 60 minute incubation at 22° C., the extent of tracer displacement was determined using a PerkinElmer EnVision multimode plate reader via HTRF dual wavelength detection, and the percent of control (POC) was calculated using a ratiometric emission factor. One hundred POC was determined using no test compound, and 0 POC was determined in the presence of 1 μM of an appropriate control inhibitor.

Test [6] addresses phosphorylated FGFR3 (SEQ ID NO: 5, amino acids 449 to 759) (Homo sapiens (Human), UniProt P22607). Put plainly: FGFR enzyme binding assay (HTRF tracer displacement), FGFR3. The settings on record: 5 nM phosphorylated FGFR3, average of multiple determinations if made. How it is done:
as §1

FGFR3 (SEQ ID NO: 5, amino acids 449-759), sequence (P22607 449-759): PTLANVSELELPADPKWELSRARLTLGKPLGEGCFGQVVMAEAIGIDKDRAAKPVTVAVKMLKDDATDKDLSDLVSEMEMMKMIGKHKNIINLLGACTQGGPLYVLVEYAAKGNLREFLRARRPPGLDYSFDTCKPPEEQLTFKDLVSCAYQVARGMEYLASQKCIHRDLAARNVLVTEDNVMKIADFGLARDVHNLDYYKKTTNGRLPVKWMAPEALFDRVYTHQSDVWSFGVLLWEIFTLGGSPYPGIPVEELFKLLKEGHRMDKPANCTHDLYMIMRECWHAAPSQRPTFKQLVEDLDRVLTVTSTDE
phosphorylated FGFR3 (SEQ ID NO: 5, amino acids 449 to 759), sequence (P22607 449-759): as above
recombinant human FGFR1 catalytic domain (amino acids 308-731), sequence (P11362 other isoform, or with tags, fused parts or gaps): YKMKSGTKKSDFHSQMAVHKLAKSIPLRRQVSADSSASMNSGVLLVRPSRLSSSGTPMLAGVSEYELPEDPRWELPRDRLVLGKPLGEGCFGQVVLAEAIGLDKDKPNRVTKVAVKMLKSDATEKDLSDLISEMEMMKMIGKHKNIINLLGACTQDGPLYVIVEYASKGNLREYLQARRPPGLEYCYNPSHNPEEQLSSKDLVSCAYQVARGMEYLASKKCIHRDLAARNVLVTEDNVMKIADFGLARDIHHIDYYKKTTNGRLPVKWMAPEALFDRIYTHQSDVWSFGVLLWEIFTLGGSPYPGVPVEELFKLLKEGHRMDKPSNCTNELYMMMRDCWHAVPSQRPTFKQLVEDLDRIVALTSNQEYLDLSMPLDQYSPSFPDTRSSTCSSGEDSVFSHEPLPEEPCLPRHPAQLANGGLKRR
dephosphorylated FGFR1 (SEQ ID NO: 1, amino acids 458 to 765), sequence (P11362 458-765): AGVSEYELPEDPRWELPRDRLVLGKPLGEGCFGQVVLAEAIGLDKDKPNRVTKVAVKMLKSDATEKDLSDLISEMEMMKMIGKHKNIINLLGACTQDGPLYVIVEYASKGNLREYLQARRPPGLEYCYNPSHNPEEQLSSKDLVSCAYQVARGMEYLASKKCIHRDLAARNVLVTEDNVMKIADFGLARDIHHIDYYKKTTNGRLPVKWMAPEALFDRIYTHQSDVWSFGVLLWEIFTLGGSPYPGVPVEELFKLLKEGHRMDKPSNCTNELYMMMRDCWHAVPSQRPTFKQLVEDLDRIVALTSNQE

Regarding `C=CC(=O)N1CCC[C@@H](C(=O)N2CC[C@H](n3cc(-c4cc(OC)c5c(C#N)cnn5c4)cn3)C2)C1` [Example 64, 6-(1-((S)-1-((R)-1-acryloylpiperidine-3-carbonyl)pyrrolidin-3-yl)-1H-pyrazol-4-yl)-4-methoxypyrazolo[1,5-a]pyridine-3-carbonitrile], the IC50 in test [1] was 2 nM; in test [2] it was 5 nM; in test [3], 23 nM; in test [5], 94 nM; in test [6] it was 20 nM. Moreover, the “FGFR3 Enz kobs” value in test [4] was 0.00074 min⁻¹.
Regarding `C=CC(=O)N[C@H]1C[C@H](C(=O)N2CC[C@@H](n3cc(-c4cc(OC)c5c(C#N)cnn5c4)cn3)C2)C1` [Example 60, N-((1R,3r)-3-((R)-3-(4-(3-cyano-4-methoxypyrazolo[1,5-a]pyridin-6-yl)-1H-pyrazol-1-yl)pyrrolidine-1-carbonyl)cyclobutyl)acryl-amide], the IC50 in test [1] is 7 nM; in test [2], 7 nM; in test [3], 31 nM; in test [5], 203 nM; in test [6] it was 32 nM. Further, the “FGFR3 Enz kobs” value in test [4] amounted to 0.00083 min⁻¹.
As for `C=CC(=O)N[C@H]1C[C@@H](C(=O)N2CC[C@@H](n3cc(-c4cc(OC)c5c(C#N)cnn5c4)cn3)C2)C1` [Example 61, N-((1S,3s)-3-((R)-3-(4-(3-cyano-4-methoxypyrazolo[1,5-a]pyridin-6-yl)-1H-pyrazol-1-yl)pyrrolidine-1-carbonyl)cyclobutyl)acryl-amide], the IC50 in test [1] was determined as 5 nM; in test [2], 6 nM; in test [3] it was 28 nM; in test [5], 346 nM; in test [6] it was 61 nM. The “FGFR3 Enz kobs” value in test [4] was 0.00064 min⁻¹.
For the compound `C=CC(=O)N1CCC(C(=O)N2CC[C@H](n3cc(-c4cc(OC)c5c(C#N)cnn5c4)cn3)C2)CC1` [Example 62, (S)-6-(1-(1-(1-acryloylpiperidine-4-carbonyl)pyrrolidin-3-yl)-1H-pyrazol-4-yl)-4-methoxypyrazolo[1,5-a]pyridine-3-carbonitrile], the 50% inhibitory concentration (IC50) amounted to 2 nM in test [1], 5 nM in test [2] and 64 nM in test [6]. In addition, the “FGFR3 Enz kobs” value in test [4] was 0.00106 min⁻¹.
As to `C=CC(=O)N[C@H]1C[C@H](C(=O)N2CC(n3cc(-c4cc(OC)c5c(C#N)cnn5c4)cn3)C2)C1` [Example 79, N-((1r,3r)-3-(3-(4-(3-cyano-4-methoxypyrazolo[1,5-a]pyridin-6-yl)-1H-pyrazol-1-yl)azetidine-1-carbonyl)cyclobutyl)acryl-amide], the IC50 was 10 nM in test [1]; 11 nM in test [2]; 36 nM in test [3]; 447 nM in test [5]; 79 nM in test [6]. Besides, in test [4], the “FGFR3 Enz kobs” value was 0.00116 min⁻¹.
For the compound `C=CC(=O)N[C@H]1C[C@H](C(=O)N2CCC(n3cc(-c4cc(OC)c5c(C#N)cnn5c4)cn3)CC2)C1` [Example 45, N-((1r,3r)-3-(4-(4-(3-cyano-4-methoxypyrazolo[1,5-a]pyridin-6-yl)-1H-pyrazol-1-yl)piperidine-1-carbonyl)cyclobutyl)acryl-amide], the figures for the IC50 in test [1], in test [2] and in test [6] were 8 nM, 9 nM and 44 nM, respectively. Further, the “FGFR3 Enz kobs” value in test [4] was 0.00116 min⁻¹.
For the compound `C=CC(=O)N1CCC(C(=O)N2CC[C@@H](n3cc(-c4cc(OC)c5c(C#N)cnn5c4)cn3)C2)CC1` [Example 53, (R)-6-(1-(1-(1-acryloylpiperidine-4-carbonyl)pyrrolidin-3-yl)-1H-pyrazol-4-yl)-4-methoxypyrazolo[1,5-a]pyridine-3-carbonitrile], the results for the IC50 in test [1], in test [2] and in test [6] were 3 nM, 7 nM and 31 nM, respectively. Moreover, in test [4], the “FGFR3 Enz kobs” value came to 0.00112 min⁻¹.
Regarding `C=CC(=O)NC1C2CC1C2C(=O)N1CCC(n2cc(-c3cc(OC)c4c(C#N)cnn4c3)cn2)CC1` (stereo not shown) [Example 46, N-(4-(4-(4-(3-cyano-4-methoxypyrazolo[1,5-a]pyridin-6-yl)-1H-pyrazol-1-yl)piperidine-1-carbonyl)bicyclo[1.1.1]pentan-2-yl)acrylamide], the IC50 in test [1] was 3 nM; in test [2], 2 nM; in test [3], 12 nM; in test [5], 23 nM; in test [6] it was 4 nM. Further, in test [4], the “FGFR3 Enz kobs” value is 0.00153 min⁻¹.
`C=CC(=O)N[C@H]1C[C@@H](C(=O)N2CCC(n3cc(-c4cc(OC)c5c(C#N)cnn5c4)cn3)CC2)C1` [Example 44, N-((1s,3s)-3-(4-(4-(3-cyano-4-methoxypyrazolo[1,5-a]pyridin-6-yl)-1H-pyrazol-1-yl)piperidine-1-carbonyl)cyclobutyl)acryl-amide]: the figures for the half-maximal inhibitory concentration (IC50) in test [1], in test [2] and in test [6] were 2 nM, 3 nM and 20 nM, respectively. Also, the “FGFR3 Enz kobs” value in test [4] came to 0.001 min⁻¹.

These data come from patent US12180207B2 (ARRAY BIOPHARMA INC., priority 2018, dated 2024).
